Counter-ions that a name gives are not always drawn.
Tests used:
NaV1.1 = NaV1.1 (Homo sapiens (Human), UniProt P35498); assay: Sodium Influx Assay (Flux), NaV1.1; assay type: cell-based; settings: Trex HEK293 cells, ANG2 dye; arithmetic mean
NaV1.6 [1] = molecular target: T1, NaV1.6 (Homo sapiens (Human), UniProt Q9UQD0); assay: Electrophysiological Assay (EP), patch voltage clamp, NaV1.6; assay type: cell-based; settings: HEK-293 cells, whole-cell patch clamp, inactivated state; arithmetic mean
T1 sequence (Q9UQD0 whole entry): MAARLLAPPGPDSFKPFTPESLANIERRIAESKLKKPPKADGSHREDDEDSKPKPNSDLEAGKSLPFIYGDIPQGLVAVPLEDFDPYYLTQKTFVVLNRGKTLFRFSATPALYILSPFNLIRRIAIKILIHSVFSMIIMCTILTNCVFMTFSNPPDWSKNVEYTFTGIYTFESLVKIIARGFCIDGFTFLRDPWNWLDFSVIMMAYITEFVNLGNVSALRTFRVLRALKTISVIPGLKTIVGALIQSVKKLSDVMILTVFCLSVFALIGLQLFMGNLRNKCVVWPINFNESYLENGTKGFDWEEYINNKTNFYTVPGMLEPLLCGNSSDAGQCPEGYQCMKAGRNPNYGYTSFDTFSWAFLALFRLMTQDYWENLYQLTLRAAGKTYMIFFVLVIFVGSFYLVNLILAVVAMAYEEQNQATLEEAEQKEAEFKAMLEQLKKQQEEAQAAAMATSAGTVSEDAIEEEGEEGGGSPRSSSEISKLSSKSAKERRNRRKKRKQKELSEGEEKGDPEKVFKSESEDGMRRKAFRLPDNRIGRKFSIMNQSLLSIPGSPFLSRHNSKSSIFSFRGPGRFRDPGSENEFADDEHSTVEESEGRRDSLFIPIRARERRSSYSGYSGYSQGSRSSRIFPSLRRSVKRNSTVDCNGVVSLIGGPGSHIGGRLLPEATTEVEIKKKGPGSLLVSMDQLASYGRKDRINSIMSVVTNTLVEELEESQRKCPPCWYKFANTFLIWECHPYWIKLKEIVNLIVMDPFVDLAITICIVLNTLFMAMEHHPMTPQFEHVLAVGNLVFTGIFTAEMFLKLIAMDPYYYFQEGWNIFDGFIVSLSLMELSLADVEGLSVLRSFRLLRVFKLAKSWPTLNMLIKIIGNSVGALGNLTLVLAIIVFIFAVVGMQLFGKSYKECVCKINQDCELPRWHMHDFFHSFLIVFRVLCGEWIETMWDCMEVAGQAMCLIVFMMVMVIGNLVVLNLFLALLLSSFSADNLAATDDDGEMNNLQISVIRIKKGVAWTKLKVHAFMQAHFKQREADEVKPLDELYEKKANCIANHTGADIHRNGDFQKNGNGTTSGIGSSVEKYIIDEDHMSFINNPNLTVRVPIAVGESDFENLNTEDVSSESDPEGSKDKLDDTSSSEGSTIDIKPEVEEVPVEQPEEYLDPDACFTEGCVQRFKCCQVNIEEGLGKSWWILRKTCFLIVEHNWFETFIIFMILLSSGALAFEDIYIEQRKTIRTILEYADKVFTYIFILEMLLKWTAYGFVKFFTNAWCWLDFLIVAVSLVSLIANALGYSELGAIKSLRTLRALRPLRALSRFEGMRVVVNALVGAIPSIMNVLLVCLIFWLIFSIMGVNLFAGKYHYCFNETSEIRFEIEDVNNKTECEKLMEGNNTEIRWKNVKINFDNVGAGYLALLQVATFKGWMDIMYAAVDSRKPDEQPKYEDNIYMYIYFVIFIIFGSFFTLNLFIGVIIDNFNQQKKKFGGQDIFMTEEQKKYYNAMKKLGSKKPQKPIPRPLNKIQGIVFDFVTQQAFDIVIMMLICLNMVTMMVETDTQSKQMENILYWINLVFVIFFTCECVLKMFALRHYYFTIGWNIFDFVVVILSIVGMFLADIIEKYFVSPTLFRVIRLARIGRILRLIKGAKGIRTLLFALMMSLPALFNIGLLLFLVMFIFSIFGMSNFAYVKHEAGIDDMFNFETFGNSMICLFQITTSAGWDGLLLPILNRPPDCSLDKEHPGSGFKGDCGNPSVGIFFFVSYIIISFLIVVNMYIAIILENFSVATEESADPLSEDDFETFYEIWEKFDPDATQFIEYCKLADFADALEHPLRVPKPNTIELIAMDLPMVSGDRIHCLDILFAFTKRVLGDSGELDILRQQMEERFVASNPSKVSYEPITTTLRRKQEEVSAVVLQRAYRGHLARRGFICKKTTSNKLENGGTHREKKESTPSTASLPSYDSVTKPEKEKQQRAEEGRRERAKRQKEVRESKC
Text: Patch voltage clamp electrophysiology allows for the direct measurement and quantification of block of voltage-gated sodium channels (Nay's), and allows the determination of the time-and voltage-dependence of block which has been interpreted as differential binding to the resting, open, and inactivated states of the sodium channel (Hille, B., Journal of General Physiology (1977), 69: 497-515).
NaV1.1, NaV1.5 and NaV1.6 cDNAs (NM_001165964 (SCN1A), NM_000335 (SCN5A) and NM_014191 (SCN8A), respectively) were stably expressed in HEK-293 cells.
Sodium currents were measured using the patch clamp technique in the whole-cell configuration using either a PatchXpress automated voltage clamp or manually using an Axopatch 200B (Axon Instruments) or Model 2400 (A-M systems) amplifier.
The manual voltage clamp protocol was as follows: Borosilicate glass micropipettes were fire-polished to a tip diameter yielding a resistance of 2-4 Mohms in the working solutions. […] In some studies, the external sodium was reduced by equimolar replacement with choline. Osmolarity in the CsF internal and NaCl external solutions was adjusted to 300 mOsm/kg and 310 mOsm/kg with glucose, respectively. All recordings were performed at ambient temperature in a bath chamber with a volume of 150 μL. Control sodium currents were measured in 0.5% DMSO. Controls and representative compounds of the invention were applied to the recording chamber through a 4-pinch or 8-pinch valve bath perfusion system manufactured by ALA Scientific Instruments.
Currents were recorded at 40 kHz sampling frequency, filtered at […], and stored using a Digidata-1322A analogue/digital interface with the pClamp software (Axon Instruments). Series resistance compensation was applied (60-80%). […] All statistics in this study are given as mean±SD.
The membrane potential was maintained at a voltage where inactivation of the channel is complete. The voltage is then stepped back to a very negative (Vhold=−150 mV) voltage for 20 ms and then a test pulse is applied to quantify the compound block. The 20 ms brief repolarization was long enough for compound-free channels to completely recover from fast inactivation, but the compound-bound channels recovered more slowly such that negligible recovery could occur during this interval. The percent decrease in sodium current following wash-on of compound was taken as the percent block of sodium channels.

NaV1.6 [2] = molecular target: T1, NaV1.6; assay: Sodium Influx Assay (Flux), NaV1.6; settings: read-out: Flux NaV1.6 IC50; Trex HEK293 cells, ANG2 dye; arithmetic mean
NaV1.5 = NaV1.5 (Homo sapiens (Human), UniProt Q14524); assay: Sodium Influx Assay (Flux), NaV1.5; settings: read-out: Flux NaV1.5 IC50; Trex HEK293 cells, ANG2 dye; arithmetic mean
Sequence of NaV1.5 (Q14524 other isoform, or with tags, fused parts or gaps): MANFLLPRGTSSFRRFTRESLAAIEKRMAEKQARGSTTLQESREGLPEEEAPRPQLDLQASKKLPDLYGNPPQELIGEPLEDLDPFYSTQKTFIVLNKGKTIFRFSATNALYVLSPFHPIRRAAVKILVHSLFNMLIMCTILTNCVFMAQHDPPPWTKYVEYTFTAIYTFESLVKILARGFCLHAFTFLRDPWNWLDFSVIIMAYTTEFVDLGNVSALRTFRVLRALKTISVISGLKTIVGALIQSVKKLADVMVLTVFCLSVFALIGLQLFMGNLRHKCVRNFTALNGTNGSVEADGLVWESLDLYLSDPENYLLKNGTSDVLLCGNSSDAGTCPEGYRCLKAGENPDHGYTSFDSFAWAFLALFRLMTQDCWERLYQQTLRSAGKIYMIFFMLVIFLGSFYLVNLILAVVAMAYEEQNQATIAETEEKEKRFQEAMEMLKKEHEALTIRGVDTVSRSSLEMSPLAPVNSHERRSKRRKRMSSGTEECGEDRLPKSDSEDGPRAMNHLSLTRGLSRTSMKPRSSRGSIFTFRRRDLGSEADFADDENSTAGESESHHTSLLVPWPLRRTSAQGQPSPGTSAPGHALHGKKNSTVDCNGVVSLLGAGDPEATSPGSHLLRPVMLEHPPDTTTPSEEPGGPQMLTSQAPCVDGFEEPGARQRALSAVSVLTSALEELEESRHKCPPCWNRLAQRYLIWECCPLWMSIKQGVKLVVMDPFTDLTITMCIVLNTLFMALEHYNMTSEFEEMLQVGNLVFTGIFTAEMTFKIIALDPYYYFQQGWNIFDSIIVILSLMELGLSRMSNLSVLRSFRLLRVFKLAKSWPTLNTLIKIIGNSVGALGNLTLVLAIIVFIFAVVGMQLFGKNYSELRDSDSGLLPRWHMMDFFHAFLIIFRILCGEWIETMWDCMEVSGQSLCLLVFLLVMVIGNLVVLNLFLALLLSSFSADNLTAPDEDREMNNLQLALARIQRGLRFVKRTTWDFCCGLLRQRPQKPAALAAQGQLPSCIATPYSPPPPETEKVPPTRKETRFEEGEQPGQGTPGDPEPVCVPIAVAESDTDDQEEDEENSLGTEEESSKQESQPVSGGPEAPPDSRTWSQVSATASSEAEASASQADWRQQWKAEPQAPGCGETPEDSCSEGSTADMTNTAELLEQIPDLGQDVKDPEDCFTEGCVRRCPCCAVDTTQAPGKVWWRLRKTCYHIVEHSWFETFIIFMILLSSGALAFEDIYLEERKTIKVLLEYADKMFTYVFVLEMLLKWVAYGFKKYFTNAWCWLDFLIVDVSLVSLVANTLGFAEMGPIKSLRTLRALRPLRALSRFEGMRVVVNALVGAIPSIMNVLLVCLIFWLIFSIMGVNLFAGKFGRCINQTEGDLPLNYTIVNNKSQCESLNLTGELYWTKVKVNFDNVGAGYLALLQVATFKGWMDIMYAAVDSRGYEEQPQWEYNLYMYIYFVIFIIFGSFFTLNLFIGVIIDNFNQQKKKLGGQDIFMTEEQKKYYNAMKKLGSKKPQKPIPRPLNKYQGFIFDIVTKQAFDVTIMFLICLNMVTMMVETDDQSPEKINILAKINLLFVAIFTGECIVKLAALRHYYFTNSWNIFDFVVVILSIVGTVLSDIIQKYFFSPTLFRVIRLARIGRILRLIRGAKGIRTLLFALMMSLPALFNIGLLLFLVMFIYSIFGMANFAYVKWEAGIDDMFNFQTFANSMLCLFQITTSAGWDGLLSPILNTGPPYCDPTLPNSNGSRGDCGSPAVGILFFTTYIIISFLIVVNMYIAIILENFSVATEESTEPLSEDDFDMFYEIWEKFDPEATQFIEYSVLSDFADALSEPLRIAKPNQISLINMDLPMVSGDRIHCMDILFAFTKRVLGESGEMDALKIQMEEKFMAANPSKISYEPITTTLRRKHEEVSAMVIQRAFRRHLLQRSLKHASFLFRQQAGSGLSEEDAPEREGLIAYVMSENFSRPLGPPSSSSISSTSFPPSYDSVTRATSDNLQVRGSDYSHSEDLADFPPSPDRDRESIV

SMILES	IC50 (NaV1.1)	IC50 (NaV1.6 [1])	IC50 (NaV1.6 [2])	IC50 (NaV1.5)
CC1(C)CN(Cc2ccccc2)CCC1Oc1ccc(S(=O)(=O)Nc2ncns2)cc1Cl (stereo not shown) [Example 2, 4-((1-benzyl-3,3-dimethylpiperidin-4-yl)oxy)-3-chloro-N-(1,2,4-thiadiazol-5-yl)benzenesulfonamide 2,2,2-trifluoroacetate]	22.5 µM	0.381 µM	1.36 µM	6.33 µM
O=S(=O)(Nc1ncns1)c1ccc(NC2CCN(Cc3ccccc3)C2)c(Cl)c1 (stereo not shown) [Example 26, 4-((1-benzylpyrrolidin-3-yl)amino)-3-chloro-N-(1,2,4-thiadiazol-5-yl)benzenesulfonamide trifluoroacetate]	15 µM	0.164 µM	0.235 µM	> 30 µM
CN(c1ccc(S(=O)(=O)Nc2ncns2)cc1Cl)[C@H]1CCN(Cc2cccc(C(F)F)c2)C1 [Example 31, (S)-3-chloro-4-((1-(3-(difluoromethyl)benzyl)pyrrolidin-3-yl)(methyl)amino)-N-(1,2,4-thiadiazol-5-yl)benzenesulfonamide]	27.7 µM	0.029 µM	0.013 µM	> 30 µM
O=S(=O)(Nc1ncns1)c1ccc(NC2CCN(Cc3ccccc3)CC2)c(Cl)c1 [Example 46, 4-((1-benzylpiperidin-4-yl)amino)-3-chloro-N-(1,2,4-thiadiazol-5-yl)benzenesulfonamide 2,2,2-trifluoroacetate]	4.13 µM	0.278 µM	0.731 µM	> 30 µM
O=S(=O)(Nc1nccs1)c1cc(Cl)c(OC2CCN(Cc3ccccc3)CC2)cc1F [Example 47, 4-((1-benzylpiperidin-4-yl)oxy)-5-chloro-2-fluoro-N-(thiazol-2-yl)benzenesulfonamide 2,2,2-trifluoroacetate]	12.3 µM	0.479 µM	0.943 µM	15.9 µM
C[C@H](c1ccccc1)N1CCC(Oc2ccc(S(=O)(=O)Nc3nccs3)cc2Cl)CC1 [Example 55, (R)-3-chloro-4-((1-(1-phenylethyl)piperidin-4-yl)oxy)-N-(thiazol-2-yl)benzenesulfonamide 2,2,2-trifluoroacetate]	–	0.032 µM	0.187 µM	–
O=S(=O)(Nc1ncns1)c1ccc(N[C@@H]2CCN(Cc3ccccc3)C2)c(Cl)c1 [Example 66, (R)-4-((1-benzylpyrrolidin-3-yl)amino)-3-chloro-N-(1,2,4-thiadiazol-5-yl)benzenesulfonamide 2,2,2-trifluoroacetate]	5.51 µM	0.144 µM	0.148 µM	> 30 µM
O=S(=O)(Nc1nccs1)c1ccc(OC2CCN(Cc3ccccc3)CC2)c(Cl)c1 [Example 95, 4-(1-benzylpiperidin-4-yloxy)-3-chloro-N-(thiazol-2-yl)benzenesulfonamide 2,2,2-trifluoroacetate]	–	0.177 µM	0.416 µM	20.9 µM
Cc1cc(S(=O)(=O)Nc2cscn2)c(F)cc1N(C)[C@H]1CCN(Cc2ccccc2)C1 [Example 101, (S)-4-((1-benzylpyrrolidin-3-yl)(methyl)amino)-2-fluoro-5-methyl-N-(thiazol-4-yl)benzenesulfonamide formate]	–	0.054 µM	0.272 µM	–
Cc1cc(S(=O)(=O)Nc2cnsc2)c(F)cc1N(C)[C@H]1CCN(Cc2ccccc2)C1 [Example 307, (S)-4-((1-benzylpyrrolidin-3-yl)(methyl)amino)-2-fluoro-N-(isothiazol-4-yl)-5-methyl benzenesulfonamide formate]	4.11 µM	–	5.31 µM	9.79 µM
Cc1cc(S(=O)(=O)Nc2cccc(F)n2)c(F)cc1N(C)[C@H]1CCN(Cc2ccccc2)C1 [Example 308, (S)-4-((1-benzylpyrrolidin-3-yl)(methyl)amino)-2-fluoro-N-(6-fluoropyridin-2-yl)-5-methylbenzenesulfonamide]	24.7 µM	–	1.47 µM	> 30 µM
CCN(c1cc(F)c(S(=O)(=O)Nc2cscn2)cc1C)[C@H]1CCN(Cc2ccccc2)C1 [Example 312, (S)-4-((1-benzylpyrrolidin-3-yl)(ethyl)amino)-2-fluoro-5-methyl-N-(thiazol-4-yl)benzenesulfonamide 2,2,2-trifluoroacetate]	10.2 µM	–	2.77 µM	6.45 µM
C[C@H](c1ccccc1)N1CCC(Oc2ccc(S(=O)(=O)Nc3cscn3)c(F)c2F)CC1 [Example 313, (R)-2,3-difluoro-4-((1-(1-phenylethyl)piperidin-4-yl)oxy)-N-(thiazol-4-yl)benzenesulfonamide formate]	29.6 µM	–	0.936 µM	> 30 µM
Cc1ccc(F)c(CN2CC[C@H](N(C)c3cc(F)c(S(=O)(=O)Nc4cscn4)cc3Cl)C2)n1 [Example 314, (S)-5-chloro-2-fluoro-4-((1-((3-fluoro-6-methylpyridin-2-yl)methyl)pyrrolidin-3-yl)(methyl)amino)-N-(thiazol-4-yl)benzenesulfonamide]	> 30 µM	–	0.73 µM	> 30 µM
CN(c1cc(F)c(S(=O)(=O)Nc2cscn2)cc1Cl)[C@H]1CCN(Cc2cccc(N3CCC3)n2)C1 [Example 317, (S)-4-((1-((6-(azetidin-1-yl)pyridin-2-yl)methyl)pyrrolidin-3-yl)(methyl)amino)-5-chloro-2-fluoro-N-(thiazol-4-yl)benzenesulfonamide 2,2,2-trifluoroacetate]	9.89 µM	–	1.03 µM	8.12 µM
Cc1c(N(C)[C@H]2CCN(Cc3cc(F)ccc3F)C2)ccc(S(=O)(=O)Nc2cscn2)c1F [Example 322, (S)-4-((1-(2,5-difluorobenzyl)-pyrrolidin-3-yl)(methyl)amino)-2-fluoro-3-methyl-N-(thiazol-4-yl)benzenesulfonamide 2,2,2-trifluoroacetate]	6.02 µM	–	0.237 µM	7.35 µM
Cc1c(N(C)[C@H]2CCN(Cc3cccc(C(F)F)c3)C2)ccc(S(=O)(=O)Nc2cscn2)c1F [Example 323, (S)-4-((1-(3-(difluoromethyl)benzyl)-pyrrolidin-3-yl)(methyl)amino)-2-fluoro-3-methyl-N-(thiazol-4-yl)benzenesulfonamide]	12.3 µM	–	0.209 µM	13.6 µM
Cc1ccc(F)c(CN2CC[C@H](N(C)c3ccc(S(=O)(=O)Nc4cscn4)c(F)c3C)C2)n1 [Example 324, (S)-2-fluoro-4-((1-((3-fluoro-6-methylpyridin-2-yl)methyl)pyrrolidin-3-yl)(methyl)amino)-3-methyl-N-(thiazol-4-yl)benzenesulfonamide 2,2,2-trifluoroacetate]	> 30 µM	–	0.403 µM	> 30 µM
CN(c1ccc(S(=O)(=O)Nc2ncns2)cc1Cl)[C@H]1CCN(Cc2cc(F)ccc2F)C1 [Example 325, (S)-3-chloro-4-((1-(2,5-difluorobenzyl)pyrrolidin-3-yl)(methyl)amino)-N-(1,2,4-thiadiazol-5-yl)benzenesulfonamide]	23.2 µM	–	0.26 µM	27 µM
CN(c1ccc(S(=O)(=O)Nc2ncns2)cc1Cl)[C@H]1CCN(Cc2c(F)cccc2F)C1 [Example 326, (S)-3-chloro-4-((1-(2,6-difluorobenzyl)pyrrolidin-3-yl)(methyl)amino)-N-(1,2,4-thiadiazol-5-yl)benzenesulfonamide]	> 30 µM	–	0.303 µM	24.5 µM
CN(c1ccc(S(=O)(=O)Nc2cscn2)c(F)c1Cl)[C@H]1CCN(Cc2ccccc2)C1 [Example 328, (S)-4-((1-benzylpyrrolidin-3-yl)(methyl)amino)-3-chloro-2-fluoro-N-(thiazol-4-yl)benzenesulfonamide 2,2,2-trifluoroacetate]	16.3 µM	–	0.786 µM	18.3 µM
Cc1cc(S(=O)(=O)Nc2cscn2)c(F)cc1N(C)[C@H]1CCN(Cc2cccc(F)c2F)C1 [compound 156, (S)-4-((1-(2,3-difluorobenzyl)pyrrolidin-3-yl)(methyl)amino)-2-fluoro-5-methyl-N-(thiazol-4-yl)benzenesulfonamide]	7.8 µM	–	0.298 µM	10.3 µM

Source: US10246453B2, “Benzenesulfonamide compounds and their use as therapeutic agents” (Xenon Pharmaceuticals Inc., priority 2016, dated 2019)
